We go through 4 compounds from BindingDB's records for doi:10.1016/j.bmc.2016.03.038 (2016).

Assay [1] in a line: Inhibition of mouse GAT3 expressed in HEK293 cells assessed as [3H]GABA uptake preincubated for 25 mins followed by [3H]GABA/unlabeled GABA addition measured after 4 mins by liquid scintillation counting analysis.
Assay [2] in a line: Inhibition of mouse GAT2 expressed in HEK293 cells assessed as [3H]GABA uptake preincubated for 25 mins followed by [3H]GABA/unlabeled GABA addition measured after 10 mins by liquid scintillation counting analysis.

One may read the IC50 as the concentration that gives 50% inhibition. Turning to `O=C(O)[C@H]1CNCC[C@@H]1CCCC/C=C/c1ccccc1-c1ccccc1`, in assay [1], the 50% inhibitory concentration (IC50) was 44.5 µM. For the compound `O=C(O)[C@H]1CNCC[C@H]1CCCC/C=C/c1ccccc1-c1ccccc1`, the half-inhibitory concentration (IC50) in assay [2] came to 52.2 µM. In the case of `O=C(O)[C@H]1CNCC[C@H]1CCCC#Cc1ccccc1Cc1ccccc1`, the IC50 in assay [1] worked out at 37.6 µM. The same measure, in the same setting: as for `O=C(O)[C@H]1CNCC[C@H]1CC/C=C/c1ccccc1Cc1ccccc1`, the figure is 62.5 µM.
